Source: the NIST ThermoML archive (doi:10.1016/j.jct.2013.11.036)
Numbers after ± are expanded uncertainties.

Experiment: mn = molality of the nth substance listed, in mol/kg
Conditions: Liquid

CCCO [propan-1-ol] + O
Conditions	mass density [kg/m3]
292.05 K, 101 kPa, Pycnometric method, m1 = 0.869	991.42 ± 1
293.45 K, 101 kPa, Pycnometric method, m1 = 2.936	980.4 ± 1
294.85 K, 101 kPa, Pycnometric method, m1 = 56.35	851.23 ± 0.88
295.15 K, 101 kPa, Pycnometric method, m1 = 0.869	990.4 ± 1
298.15 K, 101 kPa, Pycnometric method, m1 = 0.869	989.5 ± 1
298.15 K, 101 kPa, Pycnometric method, m1 = 2.936	978.54 ± 1
298.15 K, 5000 kPa, Constant-volume piezometry, m1 = 0.869	990.5 ± 1.2
298.15 K, 5000 kPa, Constant-volume piezometry, m1 = 2.465	980.7 ± 1.2
298.15 K, 10000 kPa, Constant-volume piezometry, m1 = 0.869	992.6 ± 1.2
298.15 K, 10000 kPa, Constant-volume piezometry, m1 = 2.465	982.7 ± 1.2
298.15 K, 20000 kPa, Constant-volume piezometry, m1 = 0.869	996.7 ± 1.2
298.15 K, 20000 kPa, Constant-volume piezometry, m1 = 2.465	986.6 ± 1.2
298.15 K, 30000 kPa, Constant-volume piezometry, m1 = 0.869	1000.6 ± 1.2
298.15 K, 30000 kPa, Constant-volume piezometry, m1 = 2.465	990.3 ± 1.2
298.15 K, 40000 kPa, Constant-volume piezometry, m1 = 0.869	1004.4 ± 1.3
298.15 K, 40000 kPa, Constant-volume piezometry, m1 = 2.465	993.8 ± 1.2
302.13 K, 2844 kPa, Constant-volume piezometry, m1 = 14.38	910.6 ± 1.1
302.13 K, 7747 kPa, Constant-volume piezometry, m1 = 14.38	913.1 ± 1.1
302.13 K, 13631 kPa, Constant-volume piezometry, m1 = 14.38	915.8 ± 1.1
302.8 K, 101 kPa, Pycnometric method, m1 = 2.531	974.74 ± 1
302.8 K, 101 kPa, Pycnometric method, m1 = 7.407	941.25 ± 0.97
302.8 K, 101 kPa, Pycnometric method, m1 = 14.38	908.75 ± 0.94
303.15 K, 5000 kPa, Constant-volume piezometry, m1 = 0.869	988.8 ± 1.2
303.15 K, 5000 kPa, Constant-volume piezometry, m1 = 2.465	978.4 ± 1.2
303.15 K, 10000 kPa, Constant-volume piezometry, m1 = 0.869	990.9 ± 1.2
303.15 K, 10000 kPa, Constant-volume piezometry, m1 = 2.465	980.5 ± 1.2
303.15 K, 20000 kPa, Constant-volume piezometry, m1 = 0.869	995 ± 1.2
303.15 K, 20000 kPa, Constant-volume piezometry, m1 = 2.465	984.4 ± 1.2
303.15 K, 30000 kPa, Constant-volume piezometry, m1 = 0.869	998.9 ± 1.2
303.15 K, 30000 kPa, Constant-volume piezometry, m1 = 2.465	988 ± 1.2
303.15 K, 40000 kPa, Constant-volume piezometry, m1 = 0.869	1002.7 ± 1.3
303.15 K, 40000 kPa, Constant-volume piezometry, m1 = 2.465	991.6 ± 1.2
303.2 K, 3334 kPa, Constant-volume piezometry, m1 = 2.531	975.9 ± 1.2
303.2 K, 7708 kPa, Constant-volume piezometry, m1 = 2.531	977.7 ± 1.2
304.65 K, 101 kPa, Pycnometric method, m1 = 2.936	975.69 ± 1
306 K, 101 kPa, Pycnometric method, m1 = 56.35	842.18 ± 0.87
307.99 K, 2942 kPa, Constant-volume piezometry, m1 = 56.35	872.9 ± 1.1
307.99 K, 14220 kPa, Constant-volume piezometry, m1 = 56.35	880.4 ± 1.1
308.55 K, 101 kPa, Pycnometric method, m1 = 0.869	986.52 ± 1
312.07 K, 2844 kPa, Constant-volume piezometry, m1 = 7.407	936.5 ± 1.1
312.07 K, 6865 kPa, Constant-volume piezometry, m1 = 7.407	938.7 ± 1.1
312.07 K, 12160 kPa, Constant-volume piezometry, m1 = 7.407	941.1 ± 1.1
312.65 K, 101 kPa, Pycnometric method, m1 = 2.531	969.82 ± 1
312.65 K, 101 kPa, Pycnometric method, m1 = 7.407	934.48 ± 0.97
312.65 K, 101 kPa, Pycnometric method, m1 = 14.38	901.37 ± 0.93
313.75 K, 101 kPa, Pycnometric method, m1 = 2.936	971.27 ± 1
320.75 K, 101 kPa, Pycnometric method, m1 = 56.35	829.47 ± 0.87
322.35 K, 101 kPa, Pycnometric method, m1 = 2.936	966.49 ± 1
323.15 K, 5000 kPa, Constant-volume piezometry, m1 = 0.869	980.8 ± 1.2
323.15 K, 5000 kPa, Constant-volume piezometry, m1 = 2.465	968.2 ± 1.2
323.15 K, 10000 kPa, Constant-volume piezometry, m1 = 0.869	982.9 ± 1.2
323.15 K, 10000 kPa, Constant-volume piezometry, m1 = 2.465	970.3 ± 1.2
323.15 K, 20000 kPa, Constant-volume piezometry, m1 = 0.869	986.9 ± 1.2
323.15 K, 20000 kPa, Constant-volume piezometry, m1 = 2.465	974.3 ± 1.2
323.15 K, 30000 kPa, Constant-volume piezometry, m1 = 0.869	990.8 ± 1.2
323.15 K, 30000 kPa, Constant-volume piezometry, m1 = 2.465	978 ± 1.2
323.15 K, 40000 kPa, Constant-volume piezometry, m1 = 0.869	994.5 ± 1.3
323.15 K, 40000 kPa, Constant-volume piezometry, m1 = 2.465	981.6 ± 1.2
326.05 K, 101 kPa, Pycnometric method, m1 = 2.531	962.17 ± 1
326.05 K, 101 kPa, Pycnometric method, m1 = 7.407	924.78 ± 0.97
326.05 K, 101 kPa, Pycnometric method, m1 = 14.38	890.78 ± 0.93
331.05 K, 101 kPa, Pycnometric method, m1 = 56.35	820.42 ± 0.86
340.85 K, 101 kPa, Pycnometric method, m1 = 2.531	952.6 ± 1
340.85 K, 101 kPa, Pycnometric method, m1 = 7.407	913.42 ± 0.96
340.85 K, 101 kPa, Pycnometric method, m1 = 14.38	878.68 ± 0.93
342.49 K, 2353 kPa, Constant-volume piezometry, m1 = 14.38	877.9 ± 1.1
342.49 K, 6159 kPa, Constant-volume piezometry, m1 = 14.38	880.3 ± 1.1
342.49 K, 10199 kPa, Constant-volume piezometry, m1 = 14.38	882.7 ± 1.1
342.49 K, 14455 kPa, Constant-volume piezometry, m1 = 14.38	885.4 ± 1.1
343.48 K, 2942 kPa, Constant-volume piezometry, m1 = 7.407	913.7 ± 1.1
343.48 K, 6767 kPa, Constant-volume piezometry, m1 = 7.407	915.8 ± 1.1
343.48 K, 12690 kPa, Constant-volume piezometry, m1 = 7.407	919 ± 1.1
343.94 K, 2353 kPa, Constant-volume piezometry, m1 = 2.531	950.6 ± 1.1
343.94 K, 6374 kPa, Constant-volume piezometry, m1 = 2.531	952.5 ± 1.2
343.94 K, 10787 kPa, Constant-volume piezometry, m1 = 2.531	954.3 ± 1.2
347.63 K, 3668 kPa, Constant-volume piezometry, m1 = 56.35	838 ± 1
347.63 K, 10120 kPa, Constant-volume piezometry, m1 = 56.35	843.1 ± 1
348.15 K, 5000 kPa, Constant-volume piezometry, m1 = 0.869	967.9 ± 1.2
348.15 K, 5000 kPa, Constant-volume piezometry, m1 = 2.465	952.7 ± 1.2
348.15 K, 10000 kPa, Constant-volume piezometry, m1 = 0.869	970 ± 1.2
348.15 K, 10000 kPa, Constant-volume piezometry, m1 = 2.465	954.9 ± 1.2
348.15 K, 20000 kPa, Constant-volume piezometry, m1 = 0.869	974.1 ± 1.2
348.15 K, 20000 kPa, Constant-volume piezometry, m1 = 2.465	959.1 ± 1.2
348.15 K, 30000 kPa, Constant-volume piezometry, m1 = 0.869	978 ± 1.2
348.15 K, 30000 kPa, Constant-volume piezometry, m1 = 2.465	963.1 ± 1.2
348.15 K, 40000 kPa, Constant-volume piezometry, m1 = 0.869	981.8 ± 1.2
348.15 K, 40000 kPa, Constant-volume piezometry, m1 = 2.465	966.8 ± 1.2
349.85 K, 101 kPa, Pycnometric method, m1 = 2.531	946.25 ± 1
349.85 K, 101 kPa, Pycnometric method, m1 = 7.407	906.29 ± 0.96
349.85 K, 101 kPa, Pycnometric method, m1 = 14.38	870.71 ± 0.93
352.05 K, 101 kPa, Pycnometric method, m1 = 56.35	801.03 ± 0.86
373.15 K, 5000 kPa, Constant-volume piezometry, m1 = 0.869	951.6 ± 1.2
373.15 K, 5000 kPa, Constant-volume piezometry, m1 = 2.465	934.2 ± 1.1
373.15 K, 10000 kPa, Constant-volume piezometry, m1 = 0.869	953.9 ± 1.2
373.15 K, 10000 kPa, Constant-volume piezometry, m1 = 2.465	937 ± 1.1
373.15 K, 20000 kPa, Constant-volume piezometry, m1 = 0.869	958.3 ± 1.2
373.15 K, 20000 kPa, Constant-volume piezometry, m1 = 2.465	941.3 ± 1.2
373.15 K, 30000 kPa, Constant-volume piezometry, m1 = 0.869	962.4 ± 1.2
373.15 K, 30000 kPa, Constant-volume piezometry, m1 = 2.465	945.7 ± 1.2
373.15 K, 40000 kPa, Constant-volume piezometry, m1 = 0.869	966.3 ± 1.2
373.15 K, 40000 kPa, Constant-volume piezometry, m1 = 2.465	949.7 ± 1.2
